Values after ≈ are worked out from the molar mass of the structure shown.
Experiments:
[1] = Solubility in distilled water at 37.5 °C (supersaturated, UV/Vis 420 nm); assay type: physicochemical
Procedure: (§1) Then, 200 µL aliquots were taken for 1, 5, 10, 30 and 60 min. […] The solubility tests were performed in triplicate.

[2] = tested on: CFA-induced thermal hyperalgesia; test: CFA-induced thermal hyperalgesia, paw withdrawal latency; assay type: in vivo, Male Wistar rats; conditions: rat, single oral dose 100 mg/kg
Procedure: (§2) CFA was administered at a concentration of 1 mg/mL and was previously dissolved in a mixture of paraffin oil (85%) and mannard monooleate (15%), whereas carrageenan was dissolved in an isotonic saline solution at 1%. The drugs were prepared fresh at the desired dose before administration.
(§3) The antihyperalgesic effect of the co-amorphous compound was evaluated using the thermal hyperalgesia model described by Dirig et al., with slight modifications. In this model, the rats were placed in acrylic observation chambers on a thin transparent glass plate maintained at a constant temperature of 30 °C. After a 30 min acclimatization period in the chambers, the animals received an intra-articular injection of 100 µL of CFA (1 mg/mL) or an intra-plantar injection of 50 µL of 1% carrageenan. Paw withdrawal latency to the thermal stimulus was measured before and 1, 2, 3, 4, 5 and 6 h after injection of CFA or carrageenan. To avoid tissue damage, a cutoff time of 20 s was used.
(§4) In the preclinic studies, data were expressed as the average ± S.E.M. of 6 animals per experimental group. […] From the time courses, the area under the curve (AUC) was calculated using the trapezoidal rule as a measure of the duration and intensity of the effects observed with the different treatments. […]

[3] = tested on: inflammation induced by Freund's complete adjuvant; test: CFA-induced inflammation, paw volume by plethysmometer; assay type: in vivo, Male Wistar rats; conditions: rat
Procedure: (§5) The drugs were prepared fresh at the desired dose before administration. […] In the CFA-induced inflammation model, the rats were briefly anesthetized with isoflurane, via nose cone, titrated to the lowest dose necessary to achieve non-response to distal tail pinch. […] In both models, the paw volume was measured by a digital plethysmometer 7150 (Ugo Basile, Varese, Italy). To measure volume, the injected paw was marked around 1 cm above the tibiotarsal joint with an indelible pen. The paw was immersed up to the mark every time. […] In the […] studies, data were expressed as the average ± S.E.M. of 6 animals per experimental group. For the inflammation and hyperalgesia experiments, time courses of volume change (ΔV in μL) versus time (h) or paw withdrawal latency time (s) versus time (h) were generated, respectively. From the time courses, the area under the curve (AUC) was calculated using the trapezoidal rule as a measure of the duration and intensity of the effects observed with the different treatments. Then, AUC was employed to construct dose-response curves and to compare the different treatments.

[4] = tested on: carrageenan-induced thermal hyperalgesia; test: Carrageenan-induced thermal hyperalgesia, paw withdrawal latency; assay type: in vivo, Male Wistar rats; conditions: rat, single oral dose 100 mg/kg
Procedure: as §2, §3, §4

[5] = phosphate buffer at pH 7.2; cited from earlier work
[6] = Solubility in phosphate buffer pH 6.8 at 37.5 °C (supersaturated, UV/Vis 420 nm); assay type: physicochemical
Procedure: as §1

[7] = tested on: inflammation induced by carrageenan; test: Carrageenan-induced inflammation, paw volume by plethysmometer; assay type: in vivo, Male Wistar rats; conditions: rat
Procedure: as §5

[8] = oral 100–320 mg/kg, 1 h before CFA
[9] = oral 100–320 mg/kg, 1 h before carrageenan
[10] = single oral dose 100 mg/kg (mixture: curcumin 51.4 mg/kg + L-arginine 48.6 mg/kg)

Structure (SMILES) | solubility in distilled water ([1]; after 60 min) | solubility at 1 min ([1]; distilled water, water, thermodynamic from solid, after 1 min) | antihyperalgesic effect, CFA-induced thermal hyperalgesia (paw withdrawal latency) [2] | effect on CFA-induced inflammation (paw volume change, AUC) [3, 8] | antihyperalgesic effect, carrageenan-induced thermal hyperalgesia (paw withdrawal latency) [4] | half-life in solution [5] | solubility at 60 min ([6]; pH 6.8, after 60 min) | solubility at 1 min ([6]; pH 6.8, aqueous buffer, thermodynamic from solid, after 1 min) | effect on carrageenan-induced inflammation (paw volume change, AUC) [7, 9] | effect on CFA-induced inflammation (paw volume change, AUC) [3, 10] | effect on carrageenan-induced inflammation (paw volume change, AUC) [7, 10]
COc1cc(/C=C/C(=O)CC(=O)/C=C/c2ccc(O)c(OC)c2)ccc1O [curcumin] | 0.43 µg/mL (≈ 1.17 µM) | 0.03 µg/mL (≈ 0.0814 µM) | not curcumin or L-arginine, significantly increased the latency time | failed to reverse the inflammatory effects | antinociceptive effects that were statistically different from the vehicle group | around 10 min | 3.75 µg/mL (≈ 10.2 µM) | 1.36 µg/mL (≈ 3.69 µM) | failed to reverse the inflammatory effects | – | –
O=C(O)Cc1ccccc1Nc1c(Cl)cccc1Cl [diclofenac] | – | – | – | – | – | – | – | – | – | have anti-inflammatory effects | have anti-inflammatory effects
N=C(N)NCCC[C@H](N)C(=O)O [L-arginine] | – | – | not curcumin or L-arginine, significantly increased the latency time | failed to reverse the inflammatory effects | antinociceptive effects that were statistically different from the vehicle group | – | – | – | failed to reverse the inflammatory effects | – | –
